Experimental data reported in patent publication US20090291915A1, “Silicon Compounds and Their Use” (priority 2001, published 2009).

With COc1nc(NCCCN2CCOCC2)nc(OC)c1NC(=O)c1ccc(Oc2cncc([Si](C)(C)C)c2)o1 the melting point was 80 to 82 °C.
